Test results as given in PubChem BioAssay AID790 (SRMLSC, 2007).
Active and inactive are the calls of the source. How the calls were made is not given here.

What was measured:
[1] = system: S. cerevisiae vps1Δ mutant growth inhibition; assay: growth inhibition of yeast vps1Δ mutant, dose response, S. cerevisiae, background strain comparison (AID 790)
[2] = as above; conditions: S. cerevisiae vps1Δ mutant growth inhibition; measured here: background strain growth inhibition

Structure (SMILES) | IC50 [1] | IC50 [2] [µM]
Cc1nn(-c2ccccn2)c(C)c1Oc1ccccc1O | > 10 µM (inactive) | > 10
N#CC1=C(N)C(C#N)(C#N)C(c2cccnc2)C2CC(c3ccccc3)CC=C12 (configuration not stated) | 3.03 µM (inactive) | 2.97
C=C(C)C1CC=C(CN2CCC(C(=O)OCC)CC2)CC1 (configuration not stated) | > 10 µM (inactive) | > 10
CC1CN(CCCCOc2ccc(C(C)C)cc2)CC(C)O1 (configuration not stated) | > 10 µM (inactive) | > 10
CCc1n[nH]c2c1/C(=N\O)CC(C)(C)C2 | > 10 µM (inactive) | > 10
O=Cc1cc2ccccc2nc1SCc1ccc(Cl)cc1 | > 10 µM (inactive) | > 10
